What was measured:
[1] = tested on: HTLV-I-infected T-lymph cell lines (MT-2, MT-4, HUT-102, ED-40515 (−)); experiment: Measurement of proliferation potency of HTLV-I-infected T-lymph cell lines (WST-8 cell survival rate); type: cell-based; settings: for effect on the growth of HTLV-I-infected T-lymph cell lines: 10, 5, 2.5 μM, FIG. 3; for effect on the growth of HTLV-I-infected T-lymph cell lines / growth of HTLV-I-infected T-lymph cell lines (cell survival rate): WST-8; for growth of HTLV-I-infected T-lymph cell lines (cell survival rate): 10, 5, 2.5, 1.25, 0.625 μM, FIG. 1
Experimental: (§1) After adding “WST-8” (manufactured by Wako Pure Chemical Industries, Ltd.) in an amount of 5 μL/well as a coloring substrate, cells were cultured for four hours at 37° C.
(§2) Cell survival rate (%)=[1−(A−B)/A]×100 [Formula 1]
(§3) A: Absorbance without agent treatment
(§4) A: Absorbance with agent treatment

[2] = tested on: EBV-infected B cell lines (Raji, Daudi, B95-8/BJAB, B95-8/Ramos, LCL-Ka, LCL-Ku); experiment: Measurement of proliferation potency of EBV-infected B cell lines (WST-8 cell survival rate); type: cell-based; settings: 24 hours; for growth of EBV-infected BL cell lines (cell survival rate): 10, 5, 2.5, 1.25, 0.625 μM, WST-8, FIG. 2
Experimental: as §1, §2, §3, §4

[3] = tested on: PBMC (leukemia cells) of adult T-cell-leukemia (ATL) patients; experiment: Measurement of proliferation potency of peripheral blood mononuclear cells of ATL patients (WST-8); type: cell-based, human; settings: 24 hours; for growth of leukemia cells in ATL patients (PBMC survival rate): five ATL patients, fucoxanthin 0.625-10 μM, fucoxanthinol 0.625-2.5 μM, FIG. 4
PBMC of a healthy person = experiment: Measurement of proliferation potency of peripheral blood mononuclear cells of a healthy person (WST-8); settings: for action on normal cells: normal cells versus HTLV-1-infected cells and ATL cells
Experimental: First, the peripheral blood mononuclear cells (PBMC) were separated by the Ficoll centrifugal specific gravity method. The cells were diluted with an RPMI 1640 culture medium containing 10% fetal bovine serum to 2×10^6 cells/mL and spread over a 96-well plate in an amount of 1×10^5 cells/well.
Next, 50 μL/well of fucoxanthin and fucoxanthinol were added to make final concentrations of 10, 5, 2.5, 1.25, and 0.625 μM (fucoxanthin) or 2.5, 1.25 and 0.625 μM (fucoxanthinol), followed by incubation at 37° C. for 24 hours. After adding WST-8 in an amount of 5 μL/well, the cells were cultured for four hours at 37° C. After culturing, absorbance at a wavelength of 450 nm was measured by a microplate reader to determine the survival rate of the cells using the above formula.

[4] = tested on: HTLV-I-infected cell lines (MT-2, MT-4, HUT-102, ED-40515 (−)); experiment: Measurement of apoptosis of HTLV-I-infected cell lines (annexin V, flow cytometry); type: cell-based
Experimental: After 24 hours, the cells were collected and dyed with annexin V to measure the rate (%) of apoptosis-positive cells using a flow sight meter.

[5] = tested on: HTLV-I-infected cell lines (MT-2, MT-4, HUT-102, ED-40515 (−)); experiment: Measurement of cell-cycle of HTLV-I-infected cell lines (propidium iodide, flow cytometry); type: cell-based; settings: 5 μM, 24 hours; FIG. 5
Experimental: 1×10^6 cells of HTLV-I-infected cell lines (MT-2, MT-4, HUT-102, ED-40515 (−)) were scattered over a cell culture plate, and 5 μM of fucoxanthin was added, followed by incubation at 37° C. for 24 hours. After 24 hours, the cells were collected and dyed with propidium iodide to measure the DNA content using a flow sight meter. The cell cycle of each cell was judged by calculating the distribution of the cell group of each cell cycle from the result of the DNA content.

[6] = HTLV-1-infected cells and ATL cells

Row | SMILES | effect on the growth of HTLV-I-infected T-lymph cell lines ([1]; 24 hours) | growth of HTLV-I-infected T-lymph cell lines (cell survival rate) ([1]; 24 hours) | growth of EBV-infected BL cell lines (cell survival rate) [2] | growth of leukemia cells in ATL patients (PBMC survival rate) [3] | action on normal cells (PBMC of a healthy person) | concentration causing apoptosis compared with β-carotene or astaxanthin [4, 6] | further results
1 | CC1=C(/C=C/C(C)=C/C=C/C(C)=C/C=C/C=C(C)/C=C/C=C(C)/C=C/C2=C(C)CCCC2(C)C)C(C)(C)CCC1 [β-carotene, reference compound] | only a slight effect |  |  |  |  |  | 
2 | C\C(C=C=C1C(C)(C)C[C@H](O)C[C@@]1(C)O)=C/C=C/C(C)=C/C=C/C=C(C)/C=C/C=C(\C)C(=O)C[C@@]12O[C@]1(C)C[C@@H](O)CC2(C)C [fucoxanthinol] |  | concentration-dependently suppressed the growth | concentration-dependently suppressed the growth | concentration-dependently suppressed the growth | substantially do not act on normal cells | significantly lower than the corresponding concentration of β-carotene or astaxanthin | survival rate of the cells ([1]; HTLV-1-infected cells and ATL cells, at a concentration of one micromole or less): almost zero; capability to inhibit growth compared with fucoxanthin ([1]; HTLV-I-infected T-lymph cell lines, 24 hours): significantly higher than that of fucoxanthin; capability to inhibit growth compared with fucoxanthin ([2]; EBV-infected BL cell lines): significantly higher than that of fucoxanthin; effect on growth potency compared with fucoxanthin ([3]; PBMC of ATL patients): higher than that of fucoxanthin; toxicity against the PBMC of the healthy person (PBMC of a healthy person; fucoxanthin 0.625-10 μM, fucoxanthinol 0.625-2.5 μM, 24 hours, FIG. 4): no toxicity; concentration causing apoptosis [4, 6]: one micromole or less; apoptosis-inducing effect compared with fucoxanthin ([4]; MT-2, 24 hours): stronger than that of fucoxanthin; apoptosis of MT-2 (annexin V positive cells) ([4]; MT-2, 10, 5, 2.5, 1.25, 0.625 μM, 24 hours, FIG. 8): induces apoptosis in MT-2
3 | CC1=C(/C=C/C(C)=C/C=C/C(C)=C/C=C/C=C(C)/C=C/C=C(C)/C=C/C2=C(C)C(=O)[C@@H](O)CC2(C)C)C(C)(C)C[C@H](O)C1=O [astaxanthin, reference compound] | only a slight effect |  |  |  |  |  | 
4 | CC(=O)O[C@H]1CC(C)(C)C(=C=C/C(C)=C/C=C/C(C)=C/C=C/C=C(C)/C=C/C=C(\C)C(=O)C[C@@]23O[C@]2(C)C[C@@H](O)CC3(C)C)[C@](C)(O)C1 [fucoxanthin] |  | concentration-dependently suppressed the growth | concentration-dependently suppressed the growth | concentration-dependently suppressed the growth | substantially do not act on normal cells | significantly lower than the corresponding concentration of β-carotene or astaxanthin | effect on the cell cycle of HTLV-I-infected cell lines [5]: suspends the cell cycle of all HTLV-I-infected cell lines at the G1 phase; apoptosis of HTLV-I-infected cell lines (annexin V positive cells) ([4]; MT-2, MT-4, HUT-102, ED-40515 (−), 24 hours, FIG. 6): induces apoptosis in all HTLV-I infected cell lines; concentration dependence of apoptosis of MT-2 ([4]; MT-2, 10, 5, 2.5 μM, 24 hours, FIG. 7): concentration dependent

Source: US20100197782A1, “THERAPEUTIC AGENT FOR VIRUS-ASSOCIATED MALIGNANCY” (priority 2006, published 2010)
